# Test results reported in ChEMBL document CHEMBL4152278 (Eur J Med Chem, 2018).
# System: Influenza A virus
# Assay: Antiviral activity against Influenza A virus (A/WSN/1933(H1N1)) infected in MDCK cells expressing neuraminidase H275Y mutant assessed as protection against virus-induced cytopathic effect after 48 hrs by CellTiter96 aqueous non-radioactive cell proliferation assay
# Format: functional, organism-based
row,SMILES,EC50 [nM]
1,CCC(CC)O[C@@H]1C=C(C(=O)O)C[C@H](N/C(N)=N/C(=O)[C@@H](C)c2ccc3cc(OC)ccc3c2)[C@H]1NC(C)=O,19000
2,CCCCCCCC(=O)/N=C(\N)N[C@H]1C=C(C(=O)O)O[C@@H]([C@H](O)[C@H](O)CO)[C@@H]1NC(C)=O,480
3,COc1ccc2cc([C@H](C)C(=O)/N=C(\N)N[C@H]3C=C(C(=O)O)O[C@@H]([C@H](O)[C@H](O)CO)[C@@H]3NC(C)=O)ccc2c1,900
4,CCCCCCCC(=O)/N=C(\N)N[C@H]1CC(C(=O)O)=C[C@@H](OC(CC)CC)[C@@H]1NC(C)=O,6600
5,CCC(CC)O[C@@H]1C=C(C(=O)O)C[C@H](NC(=N)N)[C@H]1NC(C)=O,2100
6,CCC(CC)O[C@@H]1C=C(C(=O)O)C[C@H](N)[C@H]1NC(C)=O [OSELTAMIVIR CARBOXYLATE],26000
7,CC(=O)N[C@H]1[C@H]([C@H](O)[C@H](O)CO)OC(C(=O)O)=C[C@@H]1NC(=N)N [ZANAMIVIR],150
